# Residues, ends and D or L forms follow the SMILES beside them. No end group written: not given here. *: point of attachment. Cbz = O=C(OCc1ccccc1)*
# B1: pTat-GK: Tat fusion protein containing residues 534-724 of PSD-95, guanylate-kinase homology domain; control (protein)
# chain: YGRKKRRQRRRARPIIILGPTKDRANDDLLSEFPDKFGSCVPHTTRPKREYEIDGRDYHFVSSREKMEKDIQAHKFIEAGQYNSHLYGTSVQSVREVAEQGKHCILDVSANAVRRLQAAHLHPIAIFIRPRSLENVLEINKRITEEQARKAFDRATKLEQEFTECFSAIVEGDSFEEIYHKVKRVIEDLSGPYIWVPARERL
# modifications: left off: small tags and cut ends
# notes: Tat fusion protein containing residues 534-724 of PSD-95, guanylate-kinase homology domain; control
# Experiments:
# [1] = Physiological variables in pre-treatment MCAO study; assay type: in vivo, Sprague-Dawley rats
# Procedure: Next, I examined whether pretreatment with Tat-peptides would reduce stroke damage. Experiments were carried out in adult male Sprague-Dawley rats subjected to transient middle cerebral artery occlusion (MCAO) for 90 minutes by the intraluminal suture method (36,37). Animals were fasted overnight and injected with atropine sulfate (0.5 mg/kg IP). After 10 minutes anesthesia was induced with 3.5% halothane in a mixture of nitrous oxide and oxygen (Vol. 2:1) and maintained with 0.8% halothane. Rats were orally intubated, mechanically ventilated, and paralyzed with pancuronium bromide (0.6 mg/kg IV). Body temperature was maintained at 36.5-37.5° C. with a heating lamp. Polyethylene catheters in the femoral artery and vein were used to continuously record blood pressure and to sample blood for gas and pH measurements. […] This produces an extensive infarction encompassing the cerebral cortex and basal ganglia. […] Physiological parameters (body temperature, blood pressure, blood gases) were monitored and maintained throughout the experiment (Table 1). All experimental manipulations and analyses of data were performed by individuals blinded to the treatment groups. The extent of cerebral infarction was measured 24 h after MCAO onset (FIG. 7C inset). The postural reflex test (38), and the forelimb placing test (39) were used to grade neurological function on a scale of 0 to 12 (normal=0; worst=12) during MCAO (at 50 minutes) and 24 h thereafter.
# [2] = system: transient unilateral middle cerebral artery occlusion; details: MCAO 90 min
# [3] = system: cortical neuronal cultures; assay: Sublethal stretch injury with or without NMDA, cell death in cortical cultures; assay type: cell-based
# Procedure: […]. In brief, cerebral cortices from 10 to 12 embryos were incubated for 10 min in 0.05% trypsin-EDTA, dissociated by trituration, and plated on flexible membranes coated with poly-L-ornithine in 6 well plates (Flexcell International Corporation, Hillsborough, N.C.) at a density of 3.25×10^6 cells per well. Plating medium consisted of DMEM supplemented with 10% heat-inactivated horse serum (Gibco) and (in mM) 2 glutamine, 25 glucose, and 26 bicarbonate. The cultures were maintained at 37° C. in a humidified 5% CO2 atmosphere. After 3 days in vitro, growth of non-neuronal cells was halted by a 48 h exposure to 10 μM FDU-solution (5 μM uridine, 5 μM (+)-5-fluor-2′-deoxyuridine). This produces cultures in which >85% of the cells are neurons, based on immunohistochemical staining for glial fibrillary associated protein (exclusive to astrocytes), and for the NMDAR1 subunit (not shown). The cultures were used for experiments after 12-14 days in vitro.
# The cultures, grown on silastic membranes as above, were placed in the Flexercell® FX-3000™ Strain Unit (Flexcell Int., Inc.), a computer-driven instrument that uses a vacuum pulse to deform the culture substrate. In all experiments, the cortical cultures were stretched to 130% of their original length for 1 s, inducing a sublethal injury as recently characterized by us (Arundine et al., 2003). The stretched neurons maintained cell membrane integrity, viability, and electrophysiological function.
# Cell death was determined by serial quantitative measurements of propidium iodide (PI) fluorescence using a multiwell plate fluorescence scanner (Cytofluor II, PerSeptive Biosytems, Framingham, Mass., USA) as described previously (Sattler et al., 1997; Sattler et al., 1998). In brief, the culture medium in each tissue culture well was replaced with control solution containing 50 μg/ml PI, and a baseline fluorescence reading was taken. Sequential readings were then taken at appropriate intervals over the 20 h observation period. The fraction of dead cells in each culture at a given time was calculated as: Fraction dead=(Ft−Fo)/FNMDA Where Ft=PI fluorescence at time t, F0=initial PI fluorescence at time zero and FNMDA=background subtracted PI fluorescence of identical cultures from the same dissection and plating, 20-24 h after a 60 min exposure to 1 mM NMDA at 37° C. Based on manual observations at the time of validation of this technique, this NMDA exposure routinely produced near complete neuronal death in each culture but had no effect on surrounding glia (also see (Bruno et al., 1994; David et al., 1996; Sattler et al., 1997)). Adding Triton X-100 (0.1%) to cultures treated in this manner produced an additional 10-15% increase in PI fluorescence due to permeabilization of non-neuronal cell membranes, consistent with a 10-15% glial component in the cultures.
# All experiments were performed at 37° C. Unless otherwise indicated, all solutions contained nimodipine (2 μM) and CNQX (10 μM) to restrict the actions of applied NMDA to NMDARs by preventing the secondary activation of other pathways (Sattler et al., 1998). In general, the cultures were washed ×2 with control solution and immediately stretched to 130% of their original length for 1 s. After the stretch, they were washed ×1 with control solution alone or challenged with an additional treatment (e.g., NMDA) and placed at 37° C. for 1 h. They were then washed ×1 with control solution and then with control solution containing 50 μg/ml PI to obtain a baseline reading. In pilot studies, baseline readings obtained at this stage were similar to those obtained by staining the cells with PI prior to stretch. As the stretch causes splashing of the bath solution, staining with PI after stretch reduced biohazard potential and artifacts associated with PI outside the culture well. Unstretched controls were manipulated identically to stretched cultures.
# [4] = Physiological variables in post-treatment MCAO study; assay type: in vivo, Sprague-Dawley rats
# Procedure: Next, I examined whether treatment with Tat-NR2B9c could attenuate ischemic neuronal damage in-vivo when given after stroke onset. […] Infarction volume and neurological outcome measurements were performed at times identical to the pre-treatment study. Body temperature, blood pressure and blood gases were monitored throughout the 24 h experiment and maintained equivalent between groups (Table 2).
# [5] = system: cortical neuronal cultures; assay: DNA fragmentation assays (TUNEL, DNA gel electrophoresis); assay type: cell-based, mouse; details: 20 h post-insult; 200 μM MnTBAP or 100 μM L-NAME
# From the text: DNA fragmentation was examined using the terminal deoxynucleotidyl transferase-mediated end nick labeling (TUNEL) method (Gavrieli et al., 1992; Didenko and Hornsby, 1996; Didenko et al., 1998) and by DNA agarose gel electrophoresis (Hill et al., 2000).
# TUNEL Assay: Nuclear DNA strand breaks were detected by enzymatically labeling free 3′-OH termini with modified nucleotides provided in the Apoptag kit (Intergen) using the manufacturer's instructions. Visualization of TUNEL-stained nuclei was achieved using an anti-digoxigenin antibody conjugated to a fluorescein or peroxidase reporter molecule (ApopTag Peroxidase Kits S7110 and S7100, respectively, Intergen). In fluorescence experiments, nuclei were counterstained using 5 ng/ml Hoechst 33258 (1:5000, Transduction Labs), and visualized using 465-495 nm excitation and 515-555 nm emission for fluorescein and 340 nm excitation and 510-40 nm emission for Hoechst. The number of TUNEL positive cells was expressed as a fraction of the total cell number in the field. In each culture, 4-8 random fields were quantified. Approximately 100-200 cells were counted per culture, and at least 3 experiments were performed for each set of counts.
# DNA Gel Electrophoresis: DNA laddering was evaluated as described elsewhere (Hill et al., 2000). In brief, all tissue was collected from each culture well and pelleted by centrifugation (1000 rpm; 1 min). The cells were digested for 2 h at 56° C. in buffer containing (in mM) 10 Tris pH 8.0, 2 EDTA pH8, 400 NaCl, 0.5% SDS, 1 mg/ml proteinase K. Digest solution was subjected to phenol/chloroform extraction and total DNA was precipitated from the aqueous layer with an equal volume of 100% ethanol. The DNA pellet was dried, dissolved in 50 μl ddH20 and kept overnight at 4° C. 10 μg DNA was prepared on a 2% agarose gel. Gels were stained with ethidium bromide and photographed.
# [6] = system: cultured cortical neurons; assay: NMDA excitotoxicity in cultured cortical neurons (propidium iodide fluorescence); assay type: cell-based, mouse
molecule,measurement,setting,value
"YGRKKRRQRRRKLSSIEADA [Tat-NR2B-AA, reference compound]",Body Temperature,[1]; After MCAo (15 min),36.8 ± 0.08 °C
same,Body Temperature,[1]; After MCAo (24 hr),37.0 ± 0.25 °C
same,Body weight,[1]; After MCAo (24 hr),244 ± 6 g
same,Body Temperature,[1]; Before MCAo(15 min),36.6 ± 0.15 °C
same,MABP,[1]; Before MCAo(15 min),115 ± 5 mmHg
same,Blood gases PCO2,[1]; Before MCAo(30 min),39.1 ± 1.4 mmHg
same,Blood gases PH,[1]; Before MCAo(30 min),7.44 ± 0.02
same,Blood gases PO2,[1]; Before MCAo(30 min),110 ± 7 mmHg
same,Body Temperature,[1]; Before MCAo(30 min),36.5 ± 0.12 °C
same,MABP,[1]; Before MCAo(30 min),110 ± 4 mmHg
same,Body Temperature,[1]; Before MCAo(45 min),36.7 ± 0.17 °C
same,MABP,[1]; Before MCAo(45 min),115 ± 5 mmHg
same,Body weight,[1]; Before anesthesia,273 ± 7 g
same,Blood gases PCO2,[1]; During MCAo (5 min),39.6 ± 0.5 mmHg
same,Blood gases PH,[1]; During MCAo (5 min),7.44 ± 0.02
same,Blood gases PO2,[1]; During MCAo (5 min),109 ± 4 mmHg
same,Body Temperature,[1]; During MCAo (5 min),36.6 ± 0.17 °C
same,MABP,[1]; During MCAo (5 min),135 ± 7 mmHg
same,Body Temperature,[1]; During MCAo (15 min),36.7 ± 0.15 °C
same,MABP,[1]; During MCAo (15 min),111 ± 6 mmHg
same,Mean (SE) core temperature during surgery,[2],37.2 (∀0.2)
same,Mean (SE) core temperature subsequent to surgery,[2],37.3 (∀0.1)
same,Mean (SE) systolic blood pressure during surgery,[2],109 (∀5.9)
same,Mean (SE) systolic blood pressure prior to surgery,[2],113 (∀8.8)
same,Mean (SE) systolic blood pressure subsequent to surgery,[2],115 (∀5.9)
same,Mean (SE) core temperature prior to surgery,[2]; drug i.v. 3 hours after onset of ischemia,36.9 (∀0.1)
same,toxic effects in control or stretched cultures,[3]; 50 nM,no toxic effects
same,Body Temperature,[4]; After MCAo (15 min),36.9 ± 0.23 °C
same,MABP,[4]; After MCAo (15 min),116 ± 4 mmHg
same,Body Temperature,[4]; After MCAo (24 hr),36.7 ± 0.27 °C
same,Body weight,[4]; After MCAo (24 hr),276 ± 6 g
same,Blood gases PCO2,[4]; Before MCAo(15 min),37.9 ± 1.1 mmHg
same,Blood gases PH,[4]; Before MCAo(15 min),7.45 ± 0.01
same,Blood gases PO2,[4]; Before MCAo(15 min),113 ± 4 mmHg
same,Body Temperature,[4]; Before MCAo(15 min),36.7 ± 0.07 °C
same,MABP,[4]; Before MCAo(15 min),103 ± 6 mmHg
same,Body weight,[4]; Before anesthesia,301 ± 5 g
same,Blood gases PCO2,[4]; During MCAo (15 min),48.0 ± 1.2 mmHg
same,Blood gases PH,[4]; During MCAo (15 min),7.46 ± 0.01
same,Blood gases PO2,[4]; During MCAo (15 min),108 ± 2 mmHg
same,Body Temperature,[4]; During MCAo (15 min),36.7 ± 0.11 °C
same,MABP,[4]; During MCAo (15 min),121 ± 5 mmHg
same,Body Temperature,[4]; During MCAo (60 min),37.0 ± 0.31 °C
same,MABP,[4]; During MCAo (60 min),149 ± 4 mmHg
same,Body Temperature,[4]; During MCAo (65 min),37.0 ± 0.29 °C
same,MABP,[4]; During MCAo (65 min),136 ± 5 mmHg
"CC(C)[C@H](NC(=O)OCc1ccccc1)C(=O)N[C@H](C=O)Cc1ccccc1 [Calpain inhibitor III, z-val-phe-CHO] (Cbz-Val-Phe-aldehyde)",heightened vulnerability of stretched neurons to NMDA,[3]; 10 μM,not reduced
same,toxic effects in control or stretched cultures,[3]; 10 μM,no toxic effects
same,protection of cells challenged with 30 μM or 1 mM NMDA,"[3]; 10 μM, whether or not stretched",slightly protected
"COC(=O)[C@@H](N)CCCNC(=N)N[N+](=O)[O-] [L-NAME, N^G-nitro-L-arginine methyl ester]",DNA laddering after stretch followed by NMDA,[5],virtually abolished
same,TUNEL staining after stretch followed by NMDA,[5],virtually abolished
same,protection against NMDA toxicity,[6]; cultured cortical neurons,protected
same,enhanced vulnerability of stretched neurons to NMDA,"[3]; 100 μM, 30 min preincubation",completely eliminated the enhanced vulnerability
same,toxicity of 30 μM NMDA in unstretched neurons,"[3]; 100 μM, 30 min preincubation",reduced the toxicity
B1,"NMDA-evoked cell death, pre-treatment","[6]; 50 nM for 1 h, then NMDA 0-100 μM 1 h, 20 h observation",had no effect
same,"enhanced cell mortality in stretched neurons by NMDA challenge, post-treatment",[3]; 50 nM applied after terminating the 1 h NMDA challenge,ineffective
